# ChEMBL document CHEMBL5506074, “Discovery and Optimization of Tetrahydroisoquinoline Derivatives To Enhance Lysosome Biogenesis as Preclinical Candidates for the Treatment of Alzheimer's Disease” (J Med Chem, 2024)
# Active and inactive are the calls of the source. The calls are words filed in the database; no cut-off is given here.
# Legend:
# [1] = tested on: Mus musculus; experiment: Anti-alzheimer activity against APP/PS1 mouse model assessed as upregulation of WIPL1 mRNA expression in brain at 10 mg/kg, ip administered for 30 days; format: functional, organism-based; conditions: time 30.0 day
# [2] = tested on: HeLa; experiment: Upregulation of GLA mRNA expression in human HeLa cells at 10 uM incubated for 24 hrs by qRT-PCR analysis; format: functional, cell-based
# [3] = tested on: HeLa; experiment: Upregulation of HEXA mRNA expression in TFEB knockout human HeLa cells at 10 uM incubated for 24 hrs by qRT-PCR analysis; format: functional, cell-based
# [4] = Oral bioavailability in ICR mouse at 20 mg/kg measured upto 24 hrs by LC-MS/MS analysis; format: ADME, organism-based; conditions: in vivo
# [5] = tested on: HeLa; experiment: Upregulation of UVRAG mRNA expression in TFEB knockout human HeLa cells at 10 uM incubated for 24 hrs by qRT-PCR analysis; format: functional, cell-based
# [6] = tested on: SH-SY5Y; experiment: Cytotoxicity against human SH-SY5Y cells assessed as effect on cell viability at 10 uM incubated for 24 hrs; format: functional, cell-based
# [7] = Toxicity in APP/PS1 mouse model assessed as change in body weight at 10 mg/kg, ip administered every other day for 30 days; format: organism-based; conditions: in vivo, 720 h, time 30 day
# [8] = tested on: HeLa; experiment: Upregulation of […] mRNA expression in TFEB knockout human HeLa cells at 10 uM incubated for 24 hrs by qRT-PCR analysis; format: functional, cell-based
# [9] = tested on: Mus musculus; experiment: Anti-alzheimer activity against APP/PS1 mouse model assessed as upregulation of p62 mRNA expression in brain at 10 mg/kg, ip administered for 30 days; format: functional, organism-based; conditions: time 30.0 day
# [10] = tested on: HeLa; experiment: Upregulation of ATG2A mRNA expression in human HeLa cells at 10 uM incubated for 24 hrs by qRT-PCR analysis; format: functional, cell-based
# [11] = tested on: Mus musculus; experiment: Anti-alzheimer activity against APP/PS1 mouse model assessed as upregulation of CTSB mRNA expression in brain at 10 mg/kg, ip administered for 30 days; format: functional, organism-based; conditions: time 30.0 day
# [12] = Acute toxicity in C57BL/6J mouse assessed as change in body weight at 50 mg/kg, ip measured upto 14 days; format: organism-based; conditions: in vivo, 336 h, time < 14 day
# [13] = Tmax in ICR mouse at 10 mg/kg, ip measured upto 24 hrs by LC-MS/MS analysis; format: ADME, organism-based; conditions: in vivo
# [14] = tested on: HeLa; experiment: Upregulation of CTSD mRNA expression in TFEB knockout human HeLa cells at 10 uM incubated for 24 hrs by qRT-PCR analysis; format: functional, cell-based
# [15] = AUC (0 to t) in ICR mouse at 5 mg/kg, iv measured upto 24 hrs by LC-MS/MS analysis; format: ADME, organism-based; conditions: in vivo
# [16] = Acute toxicity in C57BL/6J mouse assessed as kidney damage at 50 mg/kg, ip measured upto 14 days H and E staining based analysis; format: organism-based; conditions: in vivo, 336 h, time < 14 day
# [17] = Half life in ICR mouse at 10 mg/kg, ip measured upto 24 hrs by LC-MS/MS analysis; format: ADME, organism-based; conditions: in vivo
# [18] = tested on: HeLa; experiment: Upregulation of OPTN mRNA expression in human HeLa cells at 10 uM incubated for 24 hrs by qRT-PCR analysis; format: functional, cell-based
# [19] = tested on: HeLa; experiment: Upregulation of p62 mRNA expression in human HeLa cells at 10 uM incubated for 24 hrs by qRT-PCR analysis; format: functional, cell-based
# [20] = tested on: Mus musculus; experiment: Anti-alzheimer activity against APP/PS1 mouse model assessed as reduction in amyloid beta 42 plaque in cortex at 10 mg/kg, ip administered for 30 days; format: functional; design: scale not given: the % may be the effect or the level left; conditions: time 30 day
# [21] = tested on: HeLa; experiment: Upregulation of HEXA mRNA expression in human HeLa cells at 10 uM incubated for 24 hrs by qRT-PCR analysis; format: functional, cell-based
# [22] = tested on: HeLa; experiment: Induction of cell cycle arrest in human HeLa cells assessed as effect on LAMP1 level at 10 uM incubated for 12 hrs by qRT-PCR analysis; format: functional, cell-based
# [23] = tested on: Mus musculus; experiment: Anti-alzheimer activity against APP/PS1 mouse model assessed as upregulation of LAMP1 mRNA expression in brain at 10 mg/kg, ip administered for 30 days; format: functional, organism-based; conditions: time 30.0 day
# [24] = tested on: HeLa; experiment: Upregulation of CTSD mRNA expression in human HeLa cells at 10 uM incubated for 24 hrs by qRT-PCR analysis; format: functional, cell-based
# [25] = Induction of TFEB nuclear translocation in human HeLa cells expressing EGFP at 10 uM measured at 6 hrs by fluorescence microscopic analysis; format: functional
# [26] = Induction of TFEB nuclear translocation in human HeLa cells expressing EGFP at 10 uM measured at 3 hrs by fluorescence microscopic analysis; format: functional
# [27] = Acute toxicity in C57BL/6J mouse assessed as heart damage at 50 mg/kg, ip measured upto 14 days H and E staining based analysis; format: organism-based; conditions: in vivo, 336 h, time < 14 day
# [28] = target: T1, Sodium-dependent dopamine transporter (Homo sapiens, UniProt Q01959); experiment: Displacement of [3H] dopamine from DAT in HEK293 cells incubated for 1 hr by topcount plate reader analysis; format: cell-based
# T1 sequence (Q01959 whole entry): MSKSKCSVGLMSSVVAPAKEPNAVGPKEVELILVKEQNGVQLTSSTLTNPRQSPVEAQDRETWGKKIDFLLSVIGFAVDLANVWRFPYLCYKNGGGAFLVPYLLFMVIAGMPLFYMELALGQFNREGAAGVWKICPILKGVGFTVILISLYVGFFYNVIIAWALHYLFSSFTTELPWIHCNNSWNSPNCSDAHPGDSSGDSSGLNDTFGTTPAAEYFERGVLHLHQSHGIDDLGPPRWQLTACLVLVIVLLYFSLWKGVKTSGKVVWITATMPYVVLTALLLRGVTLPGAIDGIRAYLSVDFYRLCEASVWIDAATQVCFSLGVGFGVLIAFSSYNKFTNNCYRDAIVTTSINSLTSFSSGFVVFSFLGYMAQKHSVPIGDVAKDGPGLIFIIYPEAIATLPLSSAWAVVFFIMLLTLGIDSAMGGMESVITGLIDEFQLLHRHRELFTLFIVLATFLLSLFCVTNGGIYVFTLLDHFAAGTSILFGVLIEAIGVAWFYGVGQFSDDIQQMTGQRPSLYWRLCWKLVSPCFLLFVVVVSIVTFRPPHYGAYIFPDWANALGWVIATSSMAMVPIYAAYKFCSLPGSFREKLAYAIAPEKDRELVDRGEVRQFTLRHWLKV
# [29] = target: T1, Sodium-dependent dopamine transporter; experiment: Displacement of [3H] dopamine from DAT in HEK293 cells incubated for 15 mins by microbeta analysis; format: cell-based
# [30] = target: T1, Sodium-dependent dopamine transporter; experiment: Displacement of [3H] dopamine from DAT in HEK293 cells assessed as inhibition constant incubated for 1 hr by topcount plate reader analysis; format: cell-based
# [31] = tested on: HeLa; experiment: Induction of lysosome biogenesis in human HeLa cells assessed as increase in number of acidified lysosomes at 10 uM incubated for 24 hrs by LysiTracker red staining based flow cytometry analysis; format: functional, cell-based
Structure (SMILES),Activity [1],Activity [2],Activity [3],Activity [5],Activity [6],Activity [7],Activity [8],Activity [9],Activity [10],Activity [11],Activity [12],Tmax [13] [h],Activity [14],Activity [16],half-life [17] [h],Activity [18],Activity [19],Activity [20] [%],Activity [21],Activity [22],further results
Fc1ccc2[nH]cc(CCC3c4cc5c(cc4CCN3CC3CCOCC3)OCO5)c2c1 (stereo not drawn),Active,Active,Active,Active,Active,Non-Toxic,Active,Active,Active,Active,Non-Toxic,1.35,Active,Non-Toxic,1.17,Active,Active,36.3,Active,inactive,"F ([4]; po, 20 mg/kg, 24 h): 6.73%; AUCt ([15]; iv, 5 mg/kg, 24 h): 409 ng·h/mL; Activity [23]: Active; Activity [24]: Active; Activity [25]: 79%; Activity [26]: 72%; Activity [27]: Non-Toxic"
c1ccc2c(CCC3NCCc4cc5c(cc43)OCO5)c[nH]c2c1 (stereo not drawn),Active,Active,Active,Active,Active,Non-Toxic,Active,Active,Active,Active,Non-Toxic,0.05,Active,Non-Toxic,2.05,Active,Active,47,Active,inactive,bioavailability ([4]; ICR): 76.4%; IC50 [28]: 2150 nM; IC50 [29]: 6340 nM; Ki [30]: 680 nM; AUC(0-t) at 24 h ([15]; ICR): 3310 ng·h/mL; Activity [31]: Active; Activity [23]: Active; Activity [24]: Active; Activity [25]: 51%; Activity [26]: 44%; Activity [27]: Non-Toxic
